# Laboratory results as given in patent US7612113B2, “Hydroxy tetrahydro-naphthalenylurea derivatives” (Xention Limited, priority 2002, dated 2009).
# Biological target: T1, human VR1 (Homo sapiens, UniProt Q8NER1)
# T1 construct: expressed in transfected cells
# Experiment: capsaicin-induced Ca2+ influx in the human VR1-transfected CHO cell line (Assay 1)
# Assay type: cell-based
# Settings: 10 nM capsaicin, human VR1-CHOluc9aeq cells; read-out: In vitro activity class
# Description: [Measurement of capsaicin-induced Ca^2+ influx in the human VR1-transfected CHO cell line] (Assay 1)
# • (1) Establishment of the Human VR1-CHOluc9aeq Cell Line • Human vanilloid receptor (hVR1) cDNA was cloned from libraries of axotomized dorsal root ganglia (WO 00/29577). The cloned hVR1 cDNA was constructed with pcDNA3 vector and transfected into a CHOluc9aeq cell line. The cell line contains aequorin and CRE-luciferase reporter genes as read-out signals. The transfectants were cloned by limiting dilution in selection medium (DMEM/F12 medium (Gibco BRL) supplemented with 10% FCS, 1.4 mM Sodium pyruvate, 20 mM HEPES, 0.15% Sodium bicarbonate, 100 U/ml penicillin, 100 μg/ml streptomycin, 2 mM glutamine, non-essential amino acids and 2 mg/ml G418). Ca^2+ influx was examined in the capsaicin-stimulated clones. A high responder clone was selected and used for further experiments in the project. The human VR1-CHOluc9aeq cells were maintained in the selection medium and passaged every 3-4 days at 1-2.5×10^5 cells/flask ([…]). • (2) Measurement of Ca^2+ Influx Using FDSS-3000 • Human VR1-CHOluc9aeq cells were suspended in a culture medium which is the same as the selection medium except for G418 and seeded at a density of 1,000 cells per well into 384-well plates (black walled clear-base/Nalge Nunc International). Following the culture for 48 hrs the medium was changed to 2 μM Fluo-3 AM (Molecular Probes) and 0.02% Puronic F-127 in assay buffer (Hank's balanced salt solution (HBSS), 17 mM HEPES (pH7.4), 1 mM Probenecid, 0.1% BSA) and the cells were incubated for 60 min at. 25° C. After washing twice with assay buffer the cells were incubated with a test compound or vehicle for 20 min at 25° C. Mobilization of cytoplasmic Ca^2+ was measured by FDSS-3000 (λex=488 nm, λem=540 nm/Hamamatsu Photonics) for 60 sec after the stimulation with 10 nM capsaicin. Integral R was calculated and compared with controls. [Measurement of the Capsaicin-Induced Ca^2+ Influx in Primary Cultured Rat Dorsal Root Ganglia Neurons] (Assay 2) • (1) Preparation of Rat Dorsal Root Ganglia Neurons • New born Wister rats (5-11 days) were sacrificed and dorsal root ganglia (DRG) was removed. DRG was incubated with 0.1% trypsin (Gibco BRL) in PBS(−) (Gibco BRL) for 30 min at 37° C., then a half volume of fetal calf serum (FCS) was added and the cells were spun down. The DRG neuron cells were resuspended in Ham F12/5% FCS/5% horse serum (Gibco BRL) and dispersed by repeated pipetting and passing through 70 μm mesh Falcon). The culture plate was incubated for 3 hours at 37° C. to remove contaminating Schwann cells. Non-adherent cells were recovered and further cultured in laminin-coated 384 well plates (Nunc) at 1×10^4 cells/50 μl/well for 2 days in the presence of 50 ng/ml recombinant rat NGF (Sigma) and 50 μM 5-fluorodeoxyuridine (Sigma). • (2) Ca^2+ Mobilization Assay • DRG neuron cells were washed twice with HBSS supplemented with 17 mM HEPES (pH 7.4) and 0.1% BSA. After incubating with 2 μM fluo-3AM (Molecular Probe), 0.02% PF127 (Gibco BRL) and 1 mM probenecid (Sigma) for 40 min at 37° C., cells were washed 3 times. The cells were incubated with VR1 antagonists or vehicle (dimethylsulphoxide) and then with 1 μM capsaicin in FDSS-6000 (λex=480 nm, λem=520 nm/Hamamatsu Photonics). The fluorescence changes at 480 nm were monitored for 2.5 min. Integral R was calculated and compared with controls. [Organ Bath Assay to Measure the Capsaicin-Induced Bladder Contraction] (Assay 3)
# The data corresponds to the compounds as yielded by solid phase synthesis and thus to levels of purity of about 40 to 90%. For practical reasons, the compounds are grouped in four classes of activity as follows: IC50=A(<or=)0.1 μM<B(<or=)0.5 μM<C(<or=)1 μM<D
# T1 sequence (Q8NER1 whole entry): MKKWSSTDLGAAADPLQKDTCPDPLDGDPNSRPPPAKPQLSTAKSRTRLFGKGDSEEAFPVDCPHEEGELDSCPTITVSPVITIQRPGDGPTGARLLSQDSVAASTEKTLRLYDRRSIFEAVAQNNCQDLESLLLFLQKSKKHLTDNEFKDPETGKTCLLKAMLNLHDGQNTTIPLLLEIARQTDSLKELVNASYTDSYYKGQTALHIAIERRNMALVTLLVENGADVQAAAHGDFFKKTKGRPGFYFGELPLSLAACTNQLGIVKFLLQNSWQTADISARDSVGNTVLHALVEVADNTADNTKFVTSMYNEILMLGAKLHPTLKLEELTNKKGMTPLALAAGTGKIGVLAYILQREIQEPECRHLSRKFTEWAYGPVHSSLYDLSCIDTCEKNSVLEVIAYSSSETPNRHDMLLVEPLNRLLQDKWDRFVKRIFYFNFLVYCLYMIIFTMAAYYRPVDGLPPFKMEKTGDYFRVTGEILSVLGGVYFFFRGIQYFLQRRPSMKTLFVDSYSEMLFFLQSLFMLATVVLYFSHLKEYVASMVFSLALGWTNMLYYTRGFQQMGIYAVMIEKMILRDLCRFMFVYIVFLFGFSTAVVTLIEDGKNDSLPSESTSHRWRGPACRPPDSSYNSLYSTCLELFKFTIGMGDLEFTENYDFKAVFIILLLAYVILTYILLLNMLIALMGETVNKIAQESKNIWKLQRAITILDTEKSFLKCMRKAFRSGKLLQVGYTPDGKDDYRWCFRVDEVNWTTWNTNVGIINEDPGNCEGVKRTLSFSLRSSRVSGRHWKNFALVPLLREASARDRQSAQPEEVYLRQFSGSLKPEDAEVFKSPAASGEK
row,Structure (SMILES),IC50
1,"O=C(Nc1ccccc1)Nc1cccc2c1CC(O)CC2 (centres unmarked) [Example 2-1, N-phenyl-N′-(7-hydroxy-5,6,7,8-tetrahydro-1-naphthalenyl) urea]",500 to 1000 nM
2,"O=C(NCc1ccc(OC(F)(F)F)cc1)Nc1cccc2c1CC(O)CC2 (centres unmarked) [Example 4-1, N-(7-hydroxy-5,6,7,8-tetrahydro-naphthalen-1-yl)-N′-(4-trifluoromethoxy-benzyl)-urea]",< 100 nM
3,"O=C(NCc1ccc(OC(F)(F)F)cc1)Nc1cccc2c1C[C@H](O)CC2 [Example 4-2, N-{(R)-7-hydroxy-5,6,7,8-tetrahydro-naphthalen-1-yl}-N′-(4-trifluoromethoxy-benzyl)-urea]",< 100 nM
4,"O=C(NCc1ccc(OC(F)(F)F)cc1)Nc1cccc2c1C[C@@H](O)CC2 [Example 4-3, N-{(S)-7-hydroxy-5,6,7,8-tetrahydro-naphthalen-1-yl}-N′-(4-trifluoromethoxy-benzyl)-urea]",< 100 nM
5,"O=C(NCc1ccc(C(F)(F)F)cc1)Nc1cccc2c1C[C@@H](O)CC2 [Example 4-5, N-{(S)-7-hydroxy-5,6,7,8-tetrahydro-naphthalen-1-yl}-N′-(4-trifluoromethyl-benzyl)-urea]",< 100 nM

# Same assay, conditions: Table 1; 10 nM capsaicin, human VR1-CHOluc9aeq cells; read-out: activity class
row,Structure (SMILES),IC50
1,Cc1cc(NC(=O)Nc2cccc3c2CC(O)CC3)ccc1Cl (centres unmarked) [Example 2-36],< 100 nM
2,COc1cc(NC(=O)Nc2cccc3c2CC(O)CC3)cc(OC)c1 (centres unmarked) [Example 2-37],< 100 nM

# Same assay, conditions: Table 2; 10 nM capsaicin, human VR1-CHOluc9aeq cells; read-out: activity class
row,Structure (SMILES),IC50
1,O=C(NCc1ccccc1)Nc1cccc2c1CC(O)CC2 (centres unmarked) [Example 4-6],100 to 500 nM
2,O=C(NCc1ccc(Br)cc1)Nc1cccc2c1CC(O)CC2 (centres unmarked) [Example 4-7],< 100 nM
3,O=C(NCc1ccc(C(F)(F)F)cc1)Nc1cccc2c1CC(O)CC2 (centres unmarked) [Example 4-8],< 100 nM
4,O=C(NCc1ccc(Cl)cc1)Nc1cccc2c1CC(O)CC2 (centres unmarked) [Example 4-9],< 100 nM
5,O=C(NCc1cccc(C(F)(F)F)c1)Nc1cccc2c1CC(O)CC2 (centres unmarked) [Example 4-10],< 100 nM
6,COc1ccccc1CNC(=O)Nc1cccc2c1CC(O)CC2 (centres unmarked) [Example 4-11],100 to 500 nM
7,O=C(NCc1ccc(F)c(F)c1)Nc1cccc2c1CC(O)CC2 (centres unmarked) [Example 4-12],< 100 nM
8,COc1cccc(CNC(=O)Nc2cccc3c2CC(O)CC3)c1 (centres unmarked) [Example 4-13],100 to 500 nM
9,O=C(NCc1cccc(Cl)c1)Nc1cccc2c1CC(O)CC2 (centres unmarked) [Example 4-14],< 100 nM
10,O=C(NCc1ccc(Cl)cc1Cl)Nc1cccc2c1CC(O)CC2 (centres unmarked) [Example 4-15],< 100 nM
11,CC(C)(C)c1ccc(CNC(=O)Nc2cccc3c2CC(O)CC3)cc1 (centres unmarked) [Example 4-16],< 100 nM
12,O=C(NCc1ccc(OC(F)(F)F)cc1)Nc1cccc2c1CC(O)CC2 (centres unmarked) [Example 4-17],< 100 nM
13,O=C(NCc1ccc(Cl)c(Cl)c1)Nc1cccc2c1CC(O)CC2 (centres unmarked) [Example 4-18],< 100 nM
14,O=C(NCc1ccccc1C(F)(F)F)Nc1cccc2c1CC(O)CC2 (centres unmarked) [Example 4-19],< 100 nM
15,COc1ccc(CNC(=O)Nc2cccc3c2CC(O)CC3)c(OC)c1 (centres unmarked) [Example 4-20],100 to 500 nM
16,O=C(NCc1ccccc1Br)Nc1cccc2c1CC(O)CC2 (centres unmarked) [Example 4-21],< 100 nM
17,COC(=O)c1ccc(CNC(=O)Nc2cccc3c2CC(O)CC3)cc1 (centres unmarked) [Example 4-22],< 100 nM
18,COc1cc(OC)c(CNC(=O)Nc2cccc3c2CC(O)CC3)c(OC)c1 (centres unmarked) [Example 4-23],500 to 1000 nM
19,O=C(NCc1cccc(Br)c1)Nc1cccc2c1CC(O)CC2 (centres unmarked) [Example 4-24],< 100 nM
20,O=C(NCc1ccc([N+](=O)[O-])cc1)Nc1cccc2c1CC(O)CC2 (centres unmarked) [Example 4-25],< 100 nM
21,O=C(NCc1cc(C(F)(F)F)cc(C(F)(F)F)c1)Nc1cccc2c1CC(O)CC2 (centres unmarked) [Example 4-26],< 100 nM
22,COc1ccc(CNC(=O)Nc2cccc3c2CC(O)CC3)cc1OC (centres unmarked) [Example 4-27],500 to 1000 nM
23,O=C(NCc1c(F)cccc1F)Nc1cccc2c1CC(O)CC2 (centres unmarked) [Example 4-28],500 to 1000 nM
24,O=C(NCc1cccc(OC(F)(F)F)c1)Nc1cccc2c1CC(O)CC2 (centres unmarked) [Example 4-29],< 100 nM
25,O=C(NCc1ccc(C(=O)O)cc1)Nc1cccc2c1CC(O)CC2 (centres unmarked) [Example 4-30],500 to 1000 nM
